Activity calls are given as the source filed them.
Key:
[1] = molecular target: Choline-phosphate cytidylyltransferase A (Homo sapiens, UniProt P49585)
[2] = molecular target: Dual specificity protein kinase CLK2 (Homo sapiens, UniProt P49760)
[3] = molecular target: Bone morphogenetic protein receptor type-1A (Homo sapiens, UniProt P36894)
[4] = molecular target: T1, Cyclin-dependent kinase-like 5 (Homo sapiens, UniProt O76039)
T1 sequence (O76039 whole entry): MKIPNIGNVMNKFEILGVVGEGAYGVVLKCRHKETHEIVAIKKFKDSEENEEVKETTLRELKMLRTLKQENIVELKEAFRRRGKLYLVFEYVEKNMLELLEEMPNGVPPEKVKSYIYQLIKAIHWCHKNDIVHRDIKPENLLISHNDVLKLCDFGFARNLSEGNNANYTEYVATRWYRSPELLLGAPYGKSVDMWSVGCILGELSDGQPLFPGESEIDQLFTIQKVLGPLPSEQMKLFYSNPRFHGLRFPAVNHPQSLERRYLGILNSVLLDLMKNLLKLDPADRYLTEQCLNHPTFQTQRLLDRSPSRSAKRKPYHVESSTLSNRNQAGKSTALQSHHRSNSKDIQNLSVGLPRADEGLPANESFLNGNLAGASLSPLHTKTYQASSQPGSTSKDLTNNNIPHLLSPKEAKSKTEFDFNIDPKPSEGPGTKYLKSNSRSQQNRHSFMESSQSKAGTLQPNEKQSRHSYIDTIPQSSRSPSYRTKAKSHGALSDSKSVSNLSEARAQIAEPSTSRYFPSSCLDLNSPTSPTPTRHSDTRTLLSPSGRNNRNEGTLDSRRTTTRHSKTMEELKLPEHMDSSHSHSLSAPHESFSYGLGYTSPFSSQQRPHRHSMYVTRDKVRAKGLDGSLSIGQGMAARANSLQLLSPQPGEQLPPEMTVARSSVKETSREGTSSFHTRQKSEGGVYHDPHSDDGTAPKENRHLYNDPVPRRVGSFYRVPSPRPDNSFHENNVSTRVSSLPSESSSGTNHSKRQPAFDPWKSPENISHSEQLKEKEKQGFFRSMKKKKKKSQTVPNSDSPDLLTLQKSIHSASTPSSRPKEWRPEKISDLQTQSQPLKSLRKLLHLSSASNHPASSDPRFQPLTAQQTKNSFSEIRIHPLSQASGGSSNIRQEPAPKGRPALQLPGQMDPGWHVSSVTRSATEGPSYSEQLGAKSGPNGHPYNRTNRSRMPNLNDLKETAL

[5] = molecular target: PAS domain-containing serine/threonine-protein kinase (Homo sapiens, UniProt Q96RG2)
PAS domain-containing serine/threonine-protein kinase, sequence (Q96RG2 whole entry, the tested form may be a part): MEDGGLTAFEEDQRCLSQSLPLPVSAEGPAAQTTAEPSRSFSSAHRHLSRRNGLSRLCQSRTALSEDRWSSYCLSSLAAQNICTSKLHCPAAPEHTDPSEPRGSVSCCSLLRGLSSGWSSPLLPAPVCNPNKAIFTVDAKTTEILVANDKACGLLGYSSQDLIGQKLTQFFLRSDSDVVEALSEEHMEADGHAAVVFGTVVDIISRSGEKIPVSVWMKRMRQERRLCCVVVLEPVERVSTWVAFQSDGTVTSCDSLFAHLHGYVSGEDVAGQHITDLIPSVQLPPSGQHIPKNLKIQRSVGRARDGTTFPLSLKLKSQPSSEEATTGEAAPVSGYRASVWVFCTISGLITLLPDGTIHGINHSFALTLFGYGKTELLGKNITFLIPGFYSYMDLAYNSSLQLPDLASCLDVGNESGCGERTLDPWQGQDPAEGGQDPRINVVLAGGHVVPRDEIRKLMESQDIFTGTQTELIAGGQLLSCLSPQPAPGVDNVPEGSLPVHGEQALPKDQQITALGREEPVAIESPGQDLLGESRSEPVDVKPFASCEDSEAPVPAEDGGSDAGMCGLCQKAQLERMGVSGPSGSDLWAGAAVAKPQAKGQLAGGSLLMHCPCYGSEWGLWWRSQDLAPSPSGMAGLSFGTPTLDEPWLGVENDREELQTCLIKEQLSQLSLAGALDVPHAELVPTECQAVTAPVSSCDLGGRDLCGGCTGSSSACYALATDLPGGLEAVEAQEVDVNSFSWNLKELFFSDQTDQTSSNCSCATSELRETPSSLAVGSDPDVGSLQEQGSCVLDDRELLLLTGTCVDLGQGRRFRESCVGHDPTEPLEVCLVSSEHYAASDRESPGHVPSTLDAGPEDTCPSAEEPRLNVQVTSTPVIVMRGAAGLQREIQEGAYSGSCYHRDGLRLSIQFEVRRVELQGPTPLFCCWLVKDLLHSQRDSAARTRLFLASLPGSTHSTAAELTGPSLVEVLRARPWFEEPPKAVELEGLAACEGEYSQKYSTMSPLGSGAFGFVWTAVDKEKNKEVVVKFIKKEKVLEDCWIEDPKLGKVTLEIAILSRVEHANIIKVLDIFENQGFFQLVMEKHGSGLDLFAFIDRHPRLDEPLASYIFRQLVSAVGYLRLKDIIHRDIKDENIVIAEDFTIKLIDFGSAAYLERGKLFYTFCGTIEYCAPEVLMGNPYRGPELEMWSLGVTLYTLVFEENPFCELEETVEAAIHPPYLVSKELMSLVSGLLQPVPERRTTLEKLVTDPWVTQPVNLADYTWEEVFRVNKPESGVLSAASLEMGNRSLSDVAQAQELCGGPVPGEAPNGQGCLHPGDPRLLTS

[6] = molecular target: Phosphatidylethanolamine-binding protein 1 (Homo sapiens, UniProt P30086)
[7] = molecular target: Mitogen-activated protein kinase 14 (Homo sapiens, UniProt Q16539)
Mitogen-activated protein kinase 14, sequence (Q16539 whole entry): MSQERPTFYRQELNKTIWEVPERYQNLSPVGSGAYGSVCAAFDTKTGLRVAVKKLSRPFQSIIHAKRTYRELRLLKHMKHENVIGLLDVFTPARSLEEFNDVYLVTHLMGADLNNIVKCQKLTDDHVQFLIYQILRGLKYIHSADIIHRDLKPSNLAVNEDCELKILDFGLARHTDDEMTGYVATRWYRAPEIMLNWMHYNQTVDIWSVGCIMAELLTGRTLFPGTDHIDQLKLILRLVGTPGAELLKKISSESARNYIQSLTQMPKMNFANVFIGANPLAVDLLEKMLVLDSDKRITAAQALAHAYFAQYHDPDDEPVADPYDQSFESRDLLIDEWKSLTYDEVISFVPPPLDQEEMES

[8] = molecular target: Serine/threonine-protein kinase MRCK gamma (Homo sapiens, UniProt Q6DT37)
[9] = molecular target: Serine/threonine-protein kinase ATR (Homo sapiens, UniProt Q13535)
[10] = molecular target: T2, Mitogen-activated protein kinase kinase kinase 3 (Homo sapiens, UniProt Q99759)
T2 sequence (Q99759 whole entry): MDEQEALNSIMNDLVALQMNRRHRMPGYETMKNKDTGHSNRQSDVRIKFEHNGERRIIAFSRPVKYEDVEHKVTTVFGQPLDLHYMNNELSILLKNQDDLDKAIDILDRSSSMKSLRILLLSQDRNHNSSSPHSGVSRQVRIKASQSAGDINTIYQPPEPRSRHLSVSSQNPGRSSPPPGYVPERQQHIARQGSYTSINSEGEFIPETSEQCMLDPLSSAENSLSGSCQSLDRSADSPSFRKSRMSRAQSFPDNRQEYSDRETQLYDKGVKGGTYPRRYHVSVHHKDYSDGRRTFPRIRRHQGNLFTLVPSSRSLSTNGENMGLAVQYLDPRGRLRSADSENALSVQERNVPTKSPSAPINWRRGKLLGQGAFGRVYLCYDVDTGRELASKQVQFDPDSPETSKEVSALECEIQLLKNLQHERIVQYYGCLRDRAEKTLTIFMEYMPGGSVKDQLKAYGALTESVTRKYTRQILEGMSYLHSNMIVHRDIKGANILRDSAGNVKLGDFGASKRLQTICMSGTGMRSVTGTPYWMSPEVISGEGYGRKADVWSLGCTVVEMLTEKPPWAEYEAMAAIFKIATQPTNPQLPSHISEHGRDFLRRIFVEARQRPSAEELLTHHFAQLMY

[11] = molecular target: Dual specificity testis-specific protein kinase 2 (Homo sapiens, UniProt Q96S53)
[12] = molecular target: Hepatocyte growth factor receptor (Homo sapiens, UniProt P08581)
Hepatocyte growth factor receptor, sequence (P08581 whole entry): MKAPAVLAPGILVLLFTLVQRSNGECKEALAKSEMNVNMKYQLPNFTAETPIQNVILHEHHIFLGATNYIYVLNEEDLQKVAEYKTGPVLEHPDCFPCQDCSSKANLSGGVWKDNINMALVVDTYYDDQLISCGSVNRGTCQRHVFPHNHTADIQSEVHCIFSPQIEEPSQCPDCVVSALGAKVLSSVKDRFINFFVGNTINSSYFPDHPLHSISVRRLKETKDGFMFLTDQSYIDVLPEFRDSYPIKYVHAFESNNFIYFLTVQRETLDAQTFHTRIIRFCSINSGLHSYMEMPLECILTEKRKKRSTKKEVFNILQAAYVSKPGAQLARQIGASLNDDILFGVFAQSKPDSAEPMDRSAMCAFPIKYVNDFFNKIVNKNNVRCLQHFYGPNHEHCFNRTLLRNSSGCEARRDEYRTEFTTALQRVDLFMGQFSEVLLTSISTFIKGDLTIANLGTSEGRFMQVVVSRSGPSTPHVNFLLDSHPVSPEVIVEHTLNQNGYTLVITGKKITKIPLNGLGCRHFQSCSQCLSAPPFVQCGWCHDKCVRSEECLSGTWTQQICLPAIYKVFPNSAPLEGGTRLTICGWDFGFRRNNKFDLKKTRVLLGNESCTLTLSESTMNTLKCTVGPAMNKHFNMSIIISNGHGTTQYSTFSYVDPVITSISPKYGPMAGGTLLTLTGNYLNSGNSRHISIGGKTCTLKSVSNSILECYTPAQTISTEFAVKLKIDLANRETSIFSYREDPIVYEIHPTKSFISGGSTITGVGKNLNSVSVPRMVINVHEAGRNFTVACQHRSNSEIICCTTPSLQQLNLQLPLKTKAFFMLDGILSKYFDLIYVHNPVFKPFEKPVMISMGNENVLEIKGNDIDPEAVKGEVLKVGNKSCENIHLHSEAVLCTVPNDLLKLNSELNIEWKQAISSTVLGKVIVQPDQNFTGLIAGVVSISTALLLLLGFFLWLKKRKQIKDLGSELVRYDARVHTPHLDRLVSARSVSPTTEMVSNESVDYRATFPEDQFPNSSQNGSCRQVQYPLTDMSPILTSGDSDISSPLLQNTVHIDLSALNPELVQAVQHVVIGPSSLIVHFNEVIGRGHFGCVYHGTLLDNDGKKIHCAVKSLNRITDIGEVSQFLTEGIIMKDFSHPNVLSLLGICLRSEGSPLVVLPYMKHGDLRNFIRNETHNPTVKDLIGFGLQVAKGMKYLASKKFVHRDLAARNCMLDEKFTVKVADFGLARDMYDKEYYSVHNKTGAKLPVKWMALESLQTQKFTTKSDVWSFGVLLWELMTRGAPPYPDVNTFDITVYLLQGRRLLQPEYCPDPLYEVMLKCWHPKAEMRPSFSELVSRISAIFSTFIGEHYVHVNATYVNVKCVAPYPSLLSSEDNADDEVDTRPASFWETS

[13] = molecular target: Proto-oncogene tyrosine-protein kinase receptor Ret (Homo sapiens, UniProt P07949)
[14] = molecular target: Rho-associated protein kinase 1 (Homo sapiens, UniProt Q13464)
Rho-associated protein kinase 1, sequence (Q13464 whole entry): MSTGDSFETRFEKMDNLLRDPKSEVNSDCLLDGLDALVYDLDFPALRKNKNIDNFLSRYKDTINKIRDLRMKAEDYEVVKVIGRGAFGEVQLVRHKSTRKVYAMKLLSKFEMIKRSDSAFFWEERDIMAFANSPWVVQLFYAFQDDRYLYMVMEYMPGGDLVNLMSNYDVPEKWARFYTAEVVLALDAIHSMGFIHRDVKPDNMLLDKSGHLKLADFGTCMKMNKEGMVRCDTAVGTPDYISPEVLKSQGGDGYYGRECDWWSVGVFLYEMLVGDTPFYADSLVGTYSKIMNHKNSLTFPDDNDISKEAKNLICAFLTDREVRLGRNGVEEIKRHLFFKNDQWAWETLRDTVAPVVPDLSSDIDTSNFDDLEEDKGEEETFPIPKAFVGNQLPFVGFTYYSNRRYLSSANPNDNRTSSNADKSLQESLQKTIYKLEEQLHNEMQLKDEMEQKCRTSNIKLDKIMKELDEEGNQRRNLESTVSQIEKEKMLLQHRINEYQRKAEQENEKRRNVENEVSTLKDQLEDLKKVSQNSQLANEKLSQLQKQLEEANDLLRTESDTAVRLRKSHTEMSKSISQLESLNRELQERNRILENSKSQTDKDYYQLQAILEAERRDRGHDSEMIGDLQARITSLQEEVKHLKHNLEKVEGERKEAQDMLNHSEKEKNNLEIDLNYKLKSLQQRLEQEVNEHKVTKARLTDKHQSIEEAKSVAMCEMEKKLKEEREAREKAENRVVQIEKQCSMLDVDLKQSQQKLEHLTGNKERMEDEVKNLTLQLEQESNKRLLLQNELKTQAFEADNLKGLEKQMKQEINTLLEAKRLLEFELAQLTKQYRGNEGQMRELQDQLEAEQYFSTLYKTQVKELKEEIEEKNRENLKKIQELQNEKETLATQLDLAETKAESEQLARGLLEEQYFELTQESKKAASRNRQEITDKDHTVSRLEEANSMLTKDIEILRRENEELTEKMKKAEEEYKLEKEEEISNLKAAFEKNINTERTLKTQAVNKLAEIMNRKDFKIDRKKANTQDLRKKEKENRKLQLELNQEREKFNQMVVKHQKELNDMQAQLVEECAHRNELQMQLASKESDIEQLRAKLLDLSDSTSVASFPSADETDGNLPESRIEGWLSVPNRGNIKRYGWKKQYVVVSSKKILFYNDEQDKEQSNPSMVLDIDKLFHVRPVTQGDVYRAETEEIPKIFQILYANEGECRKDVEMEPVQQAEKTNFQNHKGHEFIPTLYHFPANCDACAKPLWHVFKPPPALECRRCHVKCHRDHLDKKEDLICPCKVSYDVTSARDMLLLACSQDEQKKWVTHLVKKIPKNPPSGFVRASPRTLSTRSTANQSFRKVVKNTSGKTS

[15] = molecular target: Epidermal growth factor receptor (Homo sapiens, UniProt P00533)
[16] = molecular target: Chromodomain-helicase-DNA-binding protein 4 (Homo sapiens, UniProt Q14839)
[17] = molecular target: High affinity nerve growth factor receptor (Homo sapiens, UniProt P04629)
[18] = molecular target: Serine/threonine-protein kinase 24 (Homo sapiens, UniProt Q9Y6E0)
[19] = molecular target: DNA topoisomerase 2-alpha (Homo sapiens, UniProt P11388)
[20] = molecular target: Serine/threonine-protein kinase pim-2 (Homo sapiens, UniProt Q9P1W9)
Note: in the data inactive means no Kd found up to 30 µM.

Bone morphogenetic protein receptor type-1A, sequence (P36894 whole entry): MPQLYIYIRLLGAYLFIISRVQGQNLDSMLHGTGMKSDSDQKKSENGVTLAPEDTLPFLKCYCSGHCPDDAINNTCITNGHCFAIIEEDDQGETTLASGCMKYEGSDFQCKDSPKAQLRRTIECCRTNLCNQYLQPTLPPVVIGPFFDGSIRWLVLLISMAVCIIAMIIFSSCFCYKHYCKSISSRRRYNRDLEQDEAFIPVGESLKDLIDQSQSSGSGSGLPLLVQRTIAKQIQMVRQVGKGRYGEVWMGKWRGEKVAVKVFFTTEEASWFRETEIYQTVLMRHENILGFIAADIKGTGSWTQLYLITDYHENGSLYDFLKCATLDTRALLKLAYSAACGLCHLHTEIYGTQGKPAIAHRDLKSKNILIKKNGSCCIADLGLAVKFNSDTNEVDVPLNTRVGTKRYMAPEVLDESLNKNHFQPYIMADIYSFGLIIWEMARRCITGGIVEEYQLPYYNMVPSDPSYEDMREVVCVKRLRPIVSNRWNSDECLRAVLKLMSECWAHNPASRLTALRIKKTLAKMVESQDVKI

SMILES | Kd [1] | Kd [2] | Kd [3] | Kd [4] | Kd [5] | Kd [6] | Kd [7] | Kd [8] | Kd [9] | Kd [10] | Kd [11] | Kd [12] | Kd [13] | Kd [14] | Kd [15] | Kd [16] | Kd [17] | Kd [18] | Kd [19] | Kd [20]
CNC(=O)c1cccc(-c2ccc3c(N4CCOC[C@@H]4C)nc(N4CCOC[C@@H]4C)nc3n2)c1 [VISTUSERTIB] | > 30 µM (inactive) | > 30 µM (inactive) | > 30 µM (inactive) | > 30 µM (inactive) | > 30 µM (inactive) | > 30 µM (inactive) | > 30 µM (inactive) | > 30 µM (inactive) | > 30 µM (inactive) | > 30 µM (inactive) | > 30 µM (inactive) | > 30 µM (inactive) | > 30 µM (inactive) | > 30 µM (inactive) | > 30 µM (inactive) | > 30 µM (inactive) | > 30 µM (inactive) | – | – | –
COc1cc(Nc2ncc(F)c(Nc3ccc4c(n3)N(COP(=O)(O)O)C(=O)C(C)(C)O4)n2)cc(OC)c1OC [FOSTAMATINIB] | > 30 µM (inactive) | – | > 30 µM (inactive) | > 30 µM (inactive) | > 30 µM (inactive) | > 30 µM (inactive) | > 30 µM (inactive) | > 30 µM (inactive) | > 30 µM (inactive) | > 30 µM (inactive) | > 30 µM (inactive) | > 30 µM (inactive) | 1.15 µM (active) | > 30 µM (inactive) | > 30 µM (inactive) | > 30 µM (inactive) | > 30 µM (inactive) | > 30 µM (inactive) | – | –
COc1ccc2c(OCc3nnc4ccc(-c5ccccc5)nn34)ccnc2c1 [AMG-208] | > 30 µM (inactive) | > 30 µM (inactive) | > 30 µM (inactive) | > 30 µM (inactive) | – | > 30 µM (inactive) | > 30 µM (inactive) | > 30 µM (inactive) | > 30 µM (inactive) | > 30 µM (inactive) | > 30 µM (inactive) | 0.028 µM (active) | > 30 µM (inactive) | > 30 µM (inactive) | > 30 µM (inactive) | > 30 µM (inactive) | – | > 30 µM (inactive) | > 30 µM (inactive) | –
CC(C)CC(=O)Nc1[nH]nc2c1CN(C(=O)C1CCN(C)CC1)C2(C)C [PHA-793887] | > 30 µM (inactive) | 0.007 µM | > 30 µM (inactive) | – | > 30 µM (inactive) | > 30 µM (inactive) | > 30 µM (inactive) | > 30 µM (inactive) | – | > 30 µM (inactive) | – | – | – | – | – | > 30 µM (inactive) | > 30 µM (inactive) | – | > 30 µM (inactive) | > 30 µM (inactive)
Cc1c(Cn2c(C)nc3c(C(=O)O)cc(N4CCOCC4)cc32)cccc1C(F)(F)F [GSK-2636771] | > 30 µM (inactive) | > 30 µM (inactive) | > 30 µM (inactive) | – | – | – | > 30 µM (inactive) | > 30 µM (inactive) | > 30 µM (inactive) | > 30 µM (inactive) | > 30 µM (inactive) | > 30 µM (inactive) | > 30 µM (inactive) | > 30 µM (inactive) | > 30 µM (inactive) | > 30 µM (inactive) | > 30 µM (inactive) | > 30 µM (inactive) | > 30 µM (inactive) | –
CCN1CCN(Cc2ccc(Nc3ncc(F)c(-c4cc(F)c5nc(C)n(C(C)C)c5c4)n3)nc2)CC1 [ABEMACICLIB] | > 30 µM (inactive) | – | > 30 µM (inactive) | > 30 µM (inactive) | – | – | > 30 µM (inactive) | > 30 µM (inactive) | > 30 µM (inactive) | > 30 µM (inactive) | – | > 30 µM (inactive) | > 30 µM (inactive) | > 30 µM (inactive) | > 30 µM (inactive) | > 30 µM (inactive) | > 30 µM (inactive) | > 30 µM (inactive) | > 30 µM (inactive) | –
O=C(NC[C@H](O)CO)c1ccncc1Nc1ccc(I)cc1F [PIMASERTIB] | > 30 µM (inactive) | > 30 µM (inactive) | > 30 µM (inactive) | > 30 µM (inactive) | > 30 µM (inactive) | > 30 µM (inactive) | > 30 µM (inactive) | > 30 µM (inactive) | – | > 30 µM (inactive) | > 30 µM (inactive) | > 30 µM (inactive) | > 30 µM (inactive) | > 30 µM (inactive) | > 30 µM (inactive) | > 30 µM (inactive) | > 30 µM (inactive) | > 30 µM (inactive) | > 30 µM (inactive) | –

Source: ChEMBL document CHEMBL3991601, “The target landscape of clinical kinase drugs” (Science, 2017)
